According to patent publication US4123612A, “7-(5-Am ino-5-carboxyvaleramido)-3-(carbamoyoloxymethyl)-3-cephem-4-carboxylic acid” (Eli Lilly and Company, priority 1974, dated 1978):
Structures can show the parent of a compound that is named as a salt.

Key:
[1] = physchem; conditions: 66% dimethylformamide-water
[2] = tested on: Klebsiella-Aerobacter KA 25; test: Bauer-Kirby disc diffusion, zone of inhibition; type: cell-based
[3] = tested on: Klebsiella-Aerobacter KA 14; test: Bauer-Kirby disc diffusion, zone of inhibition; type: cell-based
[4] = tested on: Escherichia coli 0127; test: Bauer-Kirby disc diffusion, zone of inhibition; type: cell-based
[5] = tested on: Staphylococcus aureus 3055; test: Bauer-Kirby disc diffusion, zone of inhibition; type: cell-based
[6] = tested on: Ascaris lumbricoides var. suum; test: anthelmintic evaluation in mice by treated feed, separate factors (Example 13); type: in vivo; conditions: 0.05 percent in diet, control 2.66
From the text: The feeds were utilized as diets for separate groups of mice, five mice per group. About twelve hours after initiation of the feeding, the mice were infected with Ascaris lumbricoides var. suum ova. Another group of five mice was fed the non-medicated feed to serve as a control but was similarly infected at the same time with Ascaris lumbricoides var. suum. All groups were fed their respective feed and maintained under normal laboratory conditions for a period of eight days, at which time all mice were taken off feed. On the ninth day, all mice were sacrificed and the lungs examined to determine the presence, and if present, numbers, of lesions of Ascaris lumbricoides var. suum.
In a further evaluation, the monoammonium salts of A16886I and A16886II were separately evaluated for the control of Ascaris lumbricoides var. suum. The evaluations were conducted in accordance with the procedure reported in Example 11 at a concentration in the diet of 0.05 percent.

[7] = tested on: Escherichia coli EC 25; test: Bauer-Kirby disc diffusion, zone of inhibition; type: cell-based
[8] = tested on: Pseudomonas sp. Ps 30; test: Bauer-Kirby disc diffusion, zone of inhibition; type: cell-based
[9] = tested on: Proteus sp. PR7; test: Bauer-Kirby disc diffusion, zone of inhibition; type: cell-based
[10] = tested on: Pseudomonas sp. Ps 24; test: Bauer-Kirby disc diffusion, zone of inhibition; type: cell-based
[11] = tested on: Proteus sp. PR6; test: Bauer-Kirby disc diffusion, zone of inhibition; type: cell-based
[12] = tested on: Salmonella typhosa SA 16; test: Bauer-Kirby disc diffusion, zone of inhibition; conditions: Salmonella enterica
From the text: (§2) The evaluation was made on the monoammonium salts of separated factors I and II.

[13] = solubility; type: physicochemical
[14] = tested on: Staphylococcus aureus 3074; test: Bauer-Kirby disc diffusion, zone of inhibition; type: cell-based
[15] = tested on: Salmonella typhosa SA 12; test: Bauer-Kirby disc diffusion, zone of inhibition; conditions: Salmonella enterica
From the text: as §2

[16] = tested on: tomato plants; test: field trial on tomato plants, crop injury (Example 9); type: in vivo; conditions: 0 = no injury, 10 = dead plants
Method: (§1) A mixture of the monoammonium salt of A16886I and the monoammonium salt of A16886II was tested under field conditions for the control of Xanthomonas vesicatoria (bacterial spot) on mature bearing tomato plants. The mixture of the two salts was dispersed in water at a concentration of 100, 200, or 400 parts per million and applied to the plants at the rate of 75 gallons per acre. Application was made with a CO2 sprayer at 50 psi. Plants were sprayed twice, on successive days; after the second spray had dried, all plants were wounded by sand blasting and then within one minute the plants were inoculated with a bacterial inoculum of Xanthomonas vesicatoria. Three days later, a third spray application of the aqueous formulation of A16886 was made. Readings were made one week and two weeks after the last spray treatment. Controls consisted of groups of plants (1) sand blasted and inoculated; (2) sand blasted only; (3) untreated; and (4) treated with streptomycin (on the same three-day spraying schedule, at a concentration of 100, 200, or 400 parts per million of aqueous solution, using a rate of 75 gallons per acre), sand blasted, and inoculated. The results were as set forth in the following table, in which crop injury is reported on a scale of 0-10, with 0 = no injury and 10 = dead plants; and control of bacterial spot is reported on a percentage basis.

[17] = tested on: Xanthomonas vesicatoria; test: field trial on tomato plants, bacterial spot control (Example 9); type: in vivo
Method: as §1

Work on `COC1(NC(=O)CCCC(N)C(=O)O)C(=O)N2C(C(=O)O)=C(COC(N)=O)CSC21` (stereo not drawn) [A16886I hydrochloride] yielded a pKa ([1]; pH 5, pK'a1) of 3.6, a pKa ([1]; pH 5, pK'a2) of 5.2 and a pKa ([1]; pH 5, pK'a3) of 10.8.
For `NC(=O)OCC1=C(C(=O)O)N2C(=O)C(NC(=O)CCCC(N)C(=O)O)[C@H]2SC1` (stereo partly drawn) [A16886II, 7-(5-amino-5-carboxyvaleramido)-3-(carbamoyloxymethyl)-3-cephem-4-carboxylic acid], the zone of inhibition at 0.5 µg/disc ([2]; 0.5 μg./disc) was 0 mm, the zone of inhibition at 1 µg/disc ([2]; 1.0 μg./disc) was 0 mm and the zone of inhibition at 2.5 µg/disc ([2]; 2.5 μg./disc) was 0 mm. For the same compound, the zone of inhibition at 5 µg/disc ([2]; 5 μg./disc) was 7.4 mm, the zone of inhibition at 10 µg/disc ([2]; 10 μg./disc) was 10.1 mm and the zone of inhibition at 30 µg/disc ([2]; 30 μg./disc) was 15.6 mm. The zone of inhibition at 0.5 µg/disc ([3]; 0.5 μg./disc) was 0 mm, the zone of inhibition at 1 µg/disc ([3]; 1.0 μg./disc) was 0 mm and the zone of inhibition at 2.5 µg/disc ([3]; 2.5 μg./disc) was 0 mm. For the same compound, the zone of inhibition at 5 µg/disc ([3]; 5 μg./disc) was 10.8 mm, the zone of inhibition at 10 µg/disc ([3]; 10 μg./disc) was 13.7 mm and the zone of inhibition at 30 µg/disc ([3]; 30 μg./disc) was 20.1 mm. The zone of inhibition at 0.5 µg/disc ([4]; 0.5 μg./disc) was 0 mm, the zone of inhibition at 1 µg/disc ([4]; 1.0 μg./disc) was 0 mm and the zone of inhibition at 2.5 µg/disc ([4]; 2.5 μg./disc) was 9.4 mm. The zone of inhibition at 5 µg/disc ([4]; 5 μg./disc) was 12.9 mm, the zone of inhibition at 10 µg/disc ([4]; 10 μg./disc) was 15.9 mm and the zone of inhibition at 30 µg/disc ([4]; 30 μg./disc) was 19.7 mm. For the same compound, the zone of inhibition at 0.5 µg/disc ([5]; 0.5 μg./disc) was 0 mm, the zone of inhibition at 1 µg/disc ([5]; 1.0 μg./disc) was 0 mm and the zone of inhibition at 2.5 µg/disc ([5]; 2.5 μg./disc) was 0 mm. The zone of inhibition at 5 µg/disc ([5]; 5 μg./disc) was 0 mm, the zone of inhibition at 10 µg/disc ([5]; 10 μg./disc) was 0 mm and the zone of inhibition at 30 µg/disc ([5]; 30 μg./disc) was 12.4 mm. The pKa ([1]; pH 6.8, pK'a1) was 4, the pKa ([1]; pH 6.8, pK'a2) was 5.3 and the pKa ([1]; pH 6.8, pK'a3) was 9.2. The pKa ([1]; pH 6.8, pK'a4) was 10.5, the pKa ([1]; pH 7.7, pK'a1) was 4.4 and the pKa ([1]; pH 7.7, pK'a2) was 5.7. The pKa ([1]; pH 7.7, pK'a3) was 9.6, the pKa ([1]; pH 7.7, pK'a4) was 10.4 and the “Average Number of Lung Lesions Per Group” value [6] was 0.20. The zone of inhibition at 0.5 µg/disc ([7]; EC25, 0.5 μg./disc) was 0 mm, the zone of inhibition at 1 µg/disc ([7]; EC25, 1.0 μg./disc) was 0 mm and the zone of inhibition at 2.5 µg/disc ([7]; EC25, 2.5 μg./disc) was 0 mm. For the same compound, the zone of inhibition at 5 µg/disc ([7]; EC25, 5 μg./disc) was 0 mm, the zone of inhibition at 10 µg/disc ([7]; EC25, 10 μg./disc) was 7.7 mm and the zone of inhibition at 30 µg/disc ([7]; EC25, 30 μg./disc) was 11.9 mm. For the same compound, the zone of inhibition at 0.5 µg/disc ([8]; SP.PS30, 0.5 μg./disc) was 0 mm, the zone of inhibition at 1 µg/disc ([8]; SP.PS30, 1.0 μg./disc) was 0 mm and the zone of inhibition at 2.5 µg/disc ([8]; SP.PS30, 2.5 μg./disc) was 0 mm. It also gave a zone of inhibition at 5 µg/disc ([8]; SP.PS30, 5 μg./disc) of 0 mm, a zone of inhibition at 10 µg/disc ([8]; SP.PS30, 10 μg./disc) of 0 mm and a zone of inhibition at 30 µg/disc ([8]; SP.PS30, 30 μg./disc) of 0 mm. It also gave a zone of inhibition at 0.5 µg/disc ([9]; 0.5 μg./disc) of 0 mm, a zone of inhibition at 1 µg/disc ([9]; 1.0 μg./disc) of 0 mm and a zone of inhibition at 2.5 µg/disc ([9]; 2.5 μg./disc) of 0 mm. For the same compound, the zone of inhibition at 5 µg/disc ([9]; 5 μg./disc) was 0 mm, the zone of inhibition at 10 µg/disc ([9]; 10 μg./disc) was 0 mm and the zone of inhibition at 30 µg/disc ([9]; 30 μg./disc) was 7.1 mm. It also gave a zone of inhibition at 0.5 µg/disc ([10]; SP.PS24, 0.5 μg./disc) of 0 mm, a zone of inhibition at 1 µg/disc ([10]; SP.PS24, 1.0 μg./disc) of 0 mm and a zone of inhibition at 2.5 µg/disc ([10]; SP.PS24, 2.5 μg./disc, * = satellite colonies within zone (Factor II)) of 9.3 mm. For the same compound, the zone of inhibition at 5 µg/disc ([10]; SP.PS24, 5 μg./disc, * = satellite colonies within zone (Factor II)) was 12.3 mm, the zone of inhibition at 10 µg/disc ([10]; SP.PS24, 10 μg./disc) was 15.4 mm and the zone of inhibition at 30 µg/disc ([10]; SP.PS24, 30 μg./disc) was 20.2 mm. The zone of inhibition at 0.5 µg/disc ([11]; 0.5 μg./disc) was 0 mm, the zone of inhibition at 1 µg/disc ([11]; 1.0 μg./disc) was 0 mm and the zone of inhibition at 2.5 µg/disc ([11]; 2.5 μg./disc) was 10.4 mm. The zone of inhibition at 5 µg/disc ([11]; 5 μg./disc) was 13.6 mm, the zone of inhibition at 10 µg/disc ([11]; 10 μg./disc) was 16.7 mm and the zone of inhibition at 30 µg/disc ([11]; 30 μg./disc) was 22.2 mm. For the same compound, the zone of inhibition at 0.5 µg/disc [12] was 0 mm, the zone of inhibition at 1 µg/disc [12] was 0 mm and the zone of inhibition at 2.5 µg/disc [12] was 7.5 mm. It also gave a zone of inhibition at 5 µg/disc [12] of 11 mm, a zone of inhibition at 10 µg/disc [12] of 13.4 mm and a zone of inhibition at 30 µg/disc [12] of 19.3 mm. For the same compound, the “solubility in acetonitrile and other organic solvents” value ([13]; acetonitrile and other organic solvents) was “essentially insoluble”, the “solubility in lower alkanols” value ([13]; lower alkanols) was “slightly soluble” and the solubility in water ([13]; water) was “very soluble”. It also gave a zone of inhibition at 0.5 µg/disc ([14]; 0.5 μg./disc) of 0 mm, a zone of inhibition at 1 µg/disc ([14]; 1.0 μg./disc) of 0 mm and a zone of inhibition at 2.5 µg/disc ([14]; 2.5 μg./disc) of 0 mm. For the same compound, the zone of inhibition at 5 µg/disc ([14]; 5 μg./disc) was 0 mm, the zone of inhibition at 10 µg/disc ([14]; 10 μg./disc) was 0 mm and the zone of inhibition at 30 µg/disc ([14]; 30 μg./disc) was 10.1 mm. For the same compound, the zone of inhibition at 0.5 µg/disc [15] was 0 mm, the zone of inhibition at 1 µg/disc [15] was 7.5 mm and the zone of inhibition at 2.5 µg/disc [15] was 12.3 mm. The zone of inhibition at 5 µg/disc [15] was 15.6 mm, the zone of inhibition at 10 µg/disc [15] was 18.7 mm and the zone of inhibition at 30 µg/disc [15] was 23.8 mm.
In the case of `[H]/N=C(/N)N[C@H]1[C@H](O)[C@@H](O)[C@H](O[C@@H]2O[C@@H](C)[C@](O)(C=O)[C@H]2O[C@@H]2O[C@@H](CO)[C@H](O)[C@@H](O)[C@@H]2NC)[C@@H](N/C(N)=N\[H])[C@@H]1O` [Streptomycin], the “Crop Injury Ratings” value ([16]; 100 parts/million, first reading) is reported as 0, the “Crop Injury Ratings” value ([16]; 100 parts/million, second reading) is reported as 0 and the “Crop Injury Ratings” value ([16]; 200 parts/million, first reading) is reported as 0. For the same compound, the “Crop Injury Ratings” value ([16]; 200 parts/million, second reading) was 0, the “Crop Injury Ratings” value ([16]; 400 parts/million, first reading) was 0 and the “Crop Injury Ratings” value ([16]; 400 parts/million, second reading) was 0. The “Percent Bacterial Spot Control” value ([17]; 100 parts/million, first reading (one week)) was 83%, the “Percent Bacterial Spot Control” value ([17]; 100 parts/million, second reading (two weeks)) was 57% and the “Percent Bacterial Spot Control” value ([17]; 200 parts/million, first reading (one week)) was 81%. For the same compound, the “Percent Bacterial Spot Control” value ([17]; 200 parts/million, second reading (two weeks)) was 37%, the “Percent Bacterial Spot Control” value ([17]; 400 parts/million, first reading (one week)) was 83% and the “Percent Bacterial Spot Control” value ([17]; 400 parts/million, second reading (two weeks)) was 59%.
